What was measured:
Adenosine A2 receptor = biological target: T1, Adenosine A2 receptor (Rattus norvegicus, UniProt P30543); experiment: Adenosine A2 receptor binding test (3H-NECA); conditions: for Ki: 3H-NECA, CPA 50 nM, rat corpus striatum; for inhibition at 10 µM / inhibition at 100 µM: read-out: A2 Receptor Inhibition (%)
T1 construct: using rat corpus striatum to prepare the final precipitate; from tissue; host or cells: rat corpus striatum membranes
Procedure: The similar procedure as in 1) above was repeated using rat corpus striatum to prepare the final precipitate. The precipitate was suspended in 50 mM Tris HCl buffer containing 10 mM magnesium chloride and 0.02 unit/mg tissue of adenosine deaminase (manufactured by Sigma Co.) to give a tissue concentration of 5 mg (wet weight)/ml.
To 1 ml of the thus prepared tissue suspension were added 50 μl of a mixture of N-ethylcarboxamidoadenosine labeled with tritium [^3 H-NECA, 26 Ci/mmol, manufactured by Amersham Co.] […] (final concentration: 50 nM), and 50 μl of a test compound. The mixture was allowed to stand at 25° C. for 120 minutes and then treated in the same manner as in 1) above to determine the radioactivity.
The inhibition rate of the test compound against the binding of A2 receptor (^3 H-NECA binding) was calculated by the following equation: [formula]
2. "T" means the radioactivity of ^3 H-NECA bound in the absence of a test compound.
3. "N" means the radioactivity of ^3 H-NECA bound in the presence of 100 μM CPA.
The Ki value shown in the table was calculated by the following equation: [formula]
L: Concentration of ^3 H-NECA
Kd: Dissociation constant of ^3 H-NECA
Kc: Inhibition constant of CPA

Male Wistar rats = experiment: Diuretic activity (oral, saline-loaded rats); assay type: in vivo, rat; conditions: for Increase in K+ excretion / Increase in Na+ excretion / Increase in volume of Urine / Na+/K+: 6 hours; for Increase in K+ excretion / Increase in Na+ excretion / Increase in volume of Urine: relative to control; for Na+/K+: relative to control (1.00)
Procedure: Male Wistar rats weighing 150 to 300 g were fasted for 18 hours. A test compound and saline (25 ml/kg) were orally administered to the test rats and only saline was administered to the control rats. Then, urine was collected for 6 hours. The test was carried out using 3 groups of animals per test compound, each group consisting of 3 animals. The volume of the urine was measured by using a measuring cylinder and electrolytes (Na^+ and K^+) in the urine were assayed with a flame photometer (Model […] manufactured by Hitachi Ltd.). The parameters in Table 3 are all expressed by relative value to the control.

Adenosine A1 receptor = biological target: T2, Adenosine A1 receptor (Cavia porcellus, UniProt P47745); experiment: Adenosine A1 receptor binding (3H-CHA); conditions: guinea pig cerebrum; for Ki: 3H-CHA, Cheng-Prusoff's equation; for inhibition at 100 µM: 10^-4 M test compound; for inhibition at 100 µM / inhibition at 10 µM: 3H-CHA 1.1 nM; for inhibition at 10 µM: 10^-5 M test compound
T2 construct: from tissue; host or cells: guinea pig cerebrum membranes
T2 sequence (P47745 1-326): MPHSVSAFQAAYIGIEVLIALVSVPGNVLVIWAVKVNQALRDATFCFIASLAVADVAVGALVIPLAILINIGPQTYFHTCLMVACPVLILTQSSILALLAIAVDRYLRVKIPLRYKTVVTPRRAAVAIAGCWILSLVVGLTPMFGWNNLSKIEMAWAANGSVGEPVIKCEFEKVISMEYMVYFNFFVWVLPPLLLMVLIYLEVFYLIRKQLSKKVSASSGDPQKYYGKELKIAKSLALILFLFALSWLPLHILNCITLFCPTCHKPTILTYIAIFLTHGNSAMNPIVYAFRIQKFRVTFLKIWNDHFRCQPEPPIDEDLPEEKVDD
Procedure: This test was conducted according to the method of Bruns et al. [Proc. Natl. Acad. Sci., 77, 5547 (1980)] with slight modification.
Cerebrum of a guinea pig was suspended in ice cooled 50 mM Tris hydroxymethyl aminomethane hydrochloride (Tris HCl) buffer (pH 7.7) by using Polytron homogenizer (manufactured by Kinematicas Co.). The suspension was centrifuged (50,000×g, 10 minutes), and the precipitate was suspended again in the same amount of 50 mM Tris HCl buffer. The suspension was centrifuged under the same conditions, and the precipitate obtained was suspended once again in 50 mM Tris HCl buffer to give a tissue concentration of 100 mg (wet weight)/ml. The tissue suspension was incubated at 37° C. for 30 minutes in the presence of 0.02 unit/mg tissue of adenosine deaminase (manufactured by Sigma Co.). The tissue suspension was then centrifuged (50,000×g, 10 minutes), and 50 mM Tris HCl buffer was added to the precipitate to adjust the concentration of tissue to 10 mg (wet weight)/ml.
To 1 ml of the thus prepared tissue suspension were added 50 μl of cyclohexyladenosine labeled with tritium [^3 H-CHA, 27 Ci/mmol, manufactured by New England Nuclear Co.] (final concentration: 1.1 nM) and 50 μl of a test compound. The mixture was allowed to stand at 25° C. for 90 minutes and then rapidly filtered by suction through a glass fiber filter (GF/C manufactured by Whatman Co.). The filter was immediately washed three times with 5 ml each of ice cold 50 mM Tris HCl buffer, and transferred to a vial, and a scintillator (EX-H by Wako Pure Chemical Industries, Ltd.) was added thereto. The radioactivity on the filter was determined with a scintillation counter (manufactured by Packard Instrument Co.).
The inhibition rate of the test compound against the binding of A1 receptor (^3 H-CHA binding) was calculated by the following equation: [formula]
2. "T" means the radioactivity of ^3 H-CHA bound in the absence of a test compound.
3. "N" means the radioactivity of ^3 H-CHA bound in the presence of 10 μM N^6 -(L-2-phenylisopropyl)adenosine (manufactured by Sigma Co.).
The inhibition constant (Ki value) shown in the table was calculated by the Cheng-Prusoff's equation.

[1] = tested on: glycerol-induced renal insufficiency in male Wistar rats; experiment: Renal protecting activity (glycerol-induced renal insufficiency model), serum creatinine and urea nitrogen; assay type: in vivo, rat; conditions: i.p.; for Creatinine content in serum, test compound administered / Urea nitrogen content in serum, test compound administered: 24 hours after glycerol; for increases in creatinine content and urea nitrogen content of the serum (in words): Compound 1 at 0.1 mg/kg (p<0.001)
Procedure: Renal insufficiency is the condition that the homeostasis of body fluid is unable to be maintained by disorder of renal function. It is known that subcutaneous or intramuscular administration of glycerol to rat induces acute renal insufficiency characterized by renal tubular disturbance [Can. J. Physiol.
(§1) Male Wistar rats were fisted from both food and water for 18 hours. A test compound or saline (control) was intraperitoneally administered to the rats. After 30 minutes, the rats were anesthesized with ether and the back skin was picked up and 0.8 ml/100 g of 50% glycerol was subcutaneously administered. Twenty four hours after the glycerol injection, the rats were anesthesized with ether and 5 ml of the blood was collected from the descending aorta. After being allowed to stand for 30 minutes or longer, the blood sample was centrifuged at 3000 rpm for 10 minutes to obtain the serum. Creatinine in the serum sample was determined using autoanalyzer (AU510, Olympus Optical Co., Ltd.) or clinical analysis kit of creatinine (Creatinine Test Wako; by Wako Pure Chemical Ind., Japan). Urea nitrogen in the serum was determined using autoanalyzer (AU510; made by Olympus Optical Co., Ltd.) or clinical analysis kit of urea nitrogen (Urea Nitrogen Test Wako; by Wako Pure Chemical Ind., Japan).
Test of the significance between the control group and the test compound-administered group was performed by the Student's t-test (n=8 to 10).

[2] = tested on: left kidneys of male Wistar rats with glycerol-induced renal insufficiency; experiment: Pathological examination of removed kidneys (glycerol-induced renal insufficiency model); assay type: in vivo, rat
Procedure: as §1
Further, the left kidneys were taken out from the animals of the test compound-treated groups and the control groups to prepare pathological samples.

[3] = 1 mg/kg, control 4.53 ± 0.19, *** P < 0.001, ** P < 0.01
[4] = 1 mg/kg, control 193.6 ± 6.4, *** P < 0.001, ** P < 0.01

T1 sequence (P30543 whole entry): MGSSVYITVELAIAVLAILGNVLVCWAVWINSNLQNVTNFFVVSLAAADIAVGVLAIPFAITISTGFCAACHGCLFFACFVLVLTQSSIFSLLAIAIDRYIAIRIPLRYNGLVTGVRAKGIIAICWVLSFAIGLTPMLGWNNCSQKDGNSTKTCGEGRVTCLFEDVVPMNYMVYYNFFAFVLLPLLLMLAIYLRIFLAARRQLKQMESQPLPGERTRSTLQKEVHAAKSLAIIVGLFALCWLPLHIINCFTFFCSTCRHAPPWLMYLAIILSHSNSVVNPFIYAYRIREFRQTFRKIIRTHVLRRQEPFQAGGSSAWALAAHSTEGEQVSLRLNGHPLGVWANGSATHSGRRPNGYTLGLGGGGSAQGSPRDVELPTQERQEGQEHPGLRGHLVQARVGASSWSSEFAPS

Structure (SMILES) | Ki (Adenosine A2 receptor) [nM] | inhibition at 10 µM (Adenosine A2 receptor) [%] | inhibition at 100 µM (Adenosine A2 receptor) [%] | Increase in K+ excretion (Male Wistar rats; 0.1 mg/kg) [%] | Increase in Na+ excretion (Male Wistar rats; 0.1 mg/kg) [%] | Increase in volume of Urine (Male Wistar rats; 0.1 mg/kg) [%] | Na+/K+ (Male Wistar rats; 0.1 mg/kg) | Increase in K+ excretion (Male Wistar rats; 1.6 mg/kg) [%] | Increase in Na+ excretion (Male Wistar rats; 1.6 mg/kg) [%] | Increase in volume of Urine (Male Wistar rats; 1.6 mg/kg) [%] | Na+/K+ (Male Wistar rats; 1.6 mg/kg) | Ki (Adenosine A1 receptor) [nM] | inhibition at 100 µM (Adenosine A1 receptor) [%] | inhibition at 10 µM (Adenosine A1 receptor) [%] | Creatinine content in serum, test compound administered [1, 3] [mg/dL] | Urea nitrogen content in serum, test compound administered [1, 4] [mg/dL] | increases in creatinine content and urea nitrogen content of the serum (in words) ([1]; conclusion from Table 4) | Increase in volume of Urine (Male Wistar rats; 25 mg/kg) [%] | Na+/K+ (Male Wistar rats; 25 mg/kg) | further results
O=c1c2[nH]c(C34CC5CC(CC3C5)C4)nc2n(C2CC2)c(=O)n1C1CC1 [Compound 3, 1,3-Dicyclopropyl-8-(3-noradamantyl)xanthine] | 1300 | 78 | 103 | 0 | 52 | 48 | 1.52 | 8 | 118 | 93 | 2.02 | 38 | 98 | 99 | – | – | – | – | – | –
O=c1c2[nH]c(C34CC5CC(CC3C5)C4)nc2n(CC2CC2)c(=O)n1CC1CC1 [Compound 1, 1,3-Bis(cyclopropylmethyl)-8-(3-noradamantyl)xanthine] | > 10000 | 49 | 70 | 9 | 146 | 184 | 2.25 | – | – | – | – | 1.9 | 101 | 99 | 2.23 ± 0.30 | 97.2 ± 13.6 | significantly suppressed | – | – | Creatinine content in serum, test compound administered ([1]; 0.1 mg/kg, control 4.53 ± 0.19, *** P < 0.001): 2.52 ± 0.24 mg/dL; Creatinine content in serum, test compound administered ([1]; 0.1 mg/kg, control 4.86 ± 0.12, *** P < 0.001): 1.97 ± 0.21 mg/dL; Urea nitrogen content in serum, test compound administered ([1]; 0.1 mg/kg, control 152.6 ± 4.1, *** P < 0.001): 61.3 ± 8.7 mg/dL; Urea nitrogen content in serum, test compound administered ([1]; 0.1 mg/kg, control 193.6 ± 6.4, *** P < 0.001): 109.4 ± 12.8 mg/dL; state of kidneys (pathological examination) [2]: significantly improved; Na+ diuretic action (Male Wistar rats; conclusion in words from Table 3): potent
O=c1c2[nH]c(C(C3CC3)C3CC3)nc2n(CC2CC2)c(=O)n1CC1CC1 [Compound 2, 1,3-Bis(cyclopropylmethyl)-8-dicyclopropylmethylxanthine] | 210 | 93 | 100 | – | – | – | – | 4 | 49 | 43 | 1.44 | 2.7 | 101 | 100 | – | – | – | – | – | –
NS(=O)(=O)c1cc(C(=O)O)c(NCc2ccco2)cc1Cl [Furosemide, reference compound] | – | – | – | – | – | – | – | – | – | – | – | – | – | – | – | – | – | 75 | 1.07 | Creatinine content in serum, test compound administered ([1]; 10 mg/kg, control 3.22 ± 0.35, no significance mark): 4.17 ± 0.41 mg/dL; Urea nitrogen content in serum, test compound administered ([1]; 10 mg/kg, control 110.7 ± 9.4, * P < 0.05): 150.3 ± 13.7 mg/dL; serum creatinine (in words) ([1]; conclusion from Table 4): tendency to increase the serum creatinine
Cn1c(=O)c2[nH]cnc2n(C)c1=O [Aminophylline, reference compound] | – | – | – | – | – | – | – | – | – | – | – | – | – | – | – | – | weak effect | 34 | 1.62 | Creatinine content in serum, test compound administered ([1]; 10 mg/kg, control 5.43 ± 0.11, no significance mark): 5.32 ± 0.19 mg/dL; Urea nitrogen content in serum, test compound administered ([1]; 10 mg/kg, control 182.5 ± 3.4, no significance mark): 174.0 ± 10.4 mg/dL; Increase in K+ excretion (Male Wistar rats; 25 mg/kg): 17%; Increase in Na+ excretion (Male Wistar rats; 25 mg/kg): 89%
O=c1c2[nH]c(C(C3CC3)C3CC3)nc2n(C2CC2)c(=O)n1C1CC1 [Compound 4, 1,3-Dicyclopropyl-8-dicyclopropylmethylxanthine] | 2400 | 104 | 108 | – | – | – | – | 18 | 54 | 54 | 1.31 | 42 | 99 | 99 | 2.55 ± 0.43 | 108.5 ± 16.8 | – | – | – | –
